This note sets out measurements from patent US7132427B2, “Quinazolines and uses thereof” (Ariad Pharmaceuticals, Inc., priority 2001, dated 2006).

The nature of this series: Hydroxyapatite assay (hydroxyapatite adsorption chromatography, bone-targeting potential). It counts as physicochemical. The following applies: K=(retention time-void time)/void, corrected using two reference compounds; TSK-Gel HA 1000 HPLC column; linear gradient 10 mM to 500 mM sodium phosphate, 0.15 N NaCl, pH 6.8. Here is the method:
Hydroxyapatite is the principal mineral component of bone. Hydroxyapatite adsorption chromatography is used as an assay to evaluate the bone-targeting potential of both individual bone-targeting moieties (“monomers”) and of pharmaceuticals incorporating bone-targeting groups.
Method: The rentention time of a test compound is measured using a linear gradient from 10 mM sodium phosphate, 0.15 N NaCl, pH=6.8 to 500 mM sodium phosphate, 0.15 N NaCl, […] on a TSK-Gel HA 1000 high pressure liquid chromatography column (7.5 mm×75 mm). The rentention time of the compound is expressed in terms of K=(retention time-void time)/void. This K value is corrected using two reference compounds to correct from inter-column and inter-system variation to obtain a K′ value.
Reference Compounds: K′ values were determined for known bone targeted compounds, the bisphosphonate, alendronate and tetracycline.

In the case of `NCCCC(O)(P(=O)(O)O)P(=O)(O)O` [Alendronate, alendronate], the “K′ value” is on record as 3.7.
